Patent US20250101108A1, “METHODS TO ENHANCE THERAPEUTIC EFFICACY IN MELANOMA VIA MODULATION OF CELL SURFACE PD-L1/L2” (THE REGENTS OF THE UNIVERSITY OF CALIFORNIA, priority 2021, published 2025)
Like-named read-outs stand apart in the source and are kept apart here.

How the values were obtained:
[1] = molecular target: ITCH (Homo sapiens, UniProt Q96J02); details: cited from earlier work
[2] = test system: NILER1-4; assay: Response of NILER1-4 melanoma to immune checkpoint blockade; type: in vivo, murine; details: AK087 15 mg/kg/day subcutaneously with anti-PD-1, anti-CTLA-4, aLAG-3
Procedure: (§1) Data are derived from two murine models of melanoma, YUMM1.ER, Braf^V600MUT melanoma, and NILER1-4, […] melanoma. (15A) YUMM1.7ER. n=9-10 per group. Means±SEM. Anti-PD-1 200 μg/mouse, anti-CTLA-4 200 μg/mouse three times a week for the first two weeks, then change to twice/week treatment. AK087 10 mg/kg/day (Subcutaneously, daily) administration. *p<0.05, student's t test. (15B) NILER1-4. n=8-10 per group. Means±SEM. Anti-PD-1 200 μg/mouse, anti-CTLA-4 200 g/mouse, aLAG-3 200 μg/mouse three times a week for the first two weeks, then change to twice/week treatment. AK087 15 mg/kg/day (Subcutaneously, daily) administration. *p<0.05, student's t test.
as §1, with “melanoma. […]” for “melanoma. (15A) YUMM1.7ER. n=9-10 per group.”, “then changed” for “then change”, “test. […]” for “test. (15B) NILER1-4. n=8-10 per group.”, “200 μg/mouse,” for “200 g/mouse,”

[3] = test system: endogenous PD-L1; assay: Ubiquitination assay (anti-PD-L1 IP and WB detection of UB) in M238 R1 cells; type: cell-based, human; details: 0, 40, 80 μM for 6 days, then MG-132 20 μM 4 hours
Procedure: (§2) (6A) Structure and chemical name of AK087. (6B) M238R1 cells with ITCH-FLAG over-expression were treated with 0, 40, or 80 μM of AK087 for 6 days and then treated with MG-132 (20 μM) for 4 hours followed by anti-PD-L1 or anti-FLAG IP and Western blot (WB) detection of UB. (6C) 293T cells co-transfected with PD-L1-FLAG and ITCH-HA were treated with 0, 40, or 80 μM of AK087 for 6 days and then treated with MG-132 (20 μM) for 4 hours followed by anti-HA or anti-FLAG IP and WB detection of UB. (6D) M238R1 cell-surface levels of PD-L1 (left) and PD-L2 (right) as measured by cell-surface staining and FACS analysis after 0, 20, 40, 80 μM AK087 treatment for 6 days. Mean±SEMs (n=3). […]

[4] = test system: YUMM1.7ER melanoma tumors; assay: Subcutaneous syngeneic YUMM1.7ER tumors on trametinib, acquired MAPKi-resistance; type: in vivo
[5] = test system: tumor cell-surface PD-L1/L2; assay: Cell-surface PD-L1 and PD-L2 detection by cell-surface staining and FACS analysis in cultured cell lines; type: cell-based, human
Procedure: as §2
(§3) FIGS. 9A-9N show physical and functional interactions between ITCH and PD-L1/L2. (9A) Cell-surface levels of PD-L2 in M238R1 (left) and MDA-MB-231 (right) cells stably expressing control shRNA (shCtr) or ITCH-targeting shRNAs (shiICH-1, shiICH-2), as measured by cell-surface staining and FACS analysis (PD-L2 is not detectable in H358 cells). MFI, mean fluorescence intensity. […] (9B) Cell-surface levels of PD-L2 in M238 R1 cells stably expressing empty vector (Vec) or over-expression (OE) ITCH, as measured by cell-surface staining and FACS analysis. […] (9C) Cell-surface levels of PD-L1 in M238R1, H358, and MDA-MB-231 stably expressing control shRNA (shCtr) or ITCH-targeting shRNAs (shiICH-1, shiICH-2) and M238R1 stably expressing empty vector (Vec) or OE ITCH, as measured by immunofluorescence staining. […] (9D) PD-L1 internalization in M238 R1 cells stably expressing empty vector (Vec) or OE ITCH, as measured by FACS analysis. […]

[6] = test system: YUMM1.7ER; assay: Response of YUMM1.7ER melanoma to immune checkpoint blockade; type: in vivo, murine; details: AK087 10 mg/kg/day subcutaneously with anti-PD-1, anti-CTLA-4
Procedure: as §1
as §1, with “melanoma. […]” for “melanoma. (15A) YUMM1.7ER. n=9-10 per group.”, “then changed” for “then change”, “test. […]” for “test. (15B) NILER1-4. n=8-10 per group.”, “200 μg/mouse,” for “200 g/mouse,”

[7] = molecular target: T1, ITCH-FLAG (Homo sapiens, UniProt Q96J02); assay: Ubiquitination assay (IP and WB detection of UB) in M238 R1 cells expressing ITCH-FLAG; type: cell-based; details: 0, 40, 80 μM for 6 days, then MG-132 20 μM 4 hours
T1 construct: expressed in transfected cells
Procedure: as §2

[8] = molecular target: T2, UBCH7 and ITCH (Homo sapiens, UniProt Q96J02); assay: UBCH7-ITCH interaction, anti-FLAG immunoprecipitation and WB in HEK293T cells; type: cell-based; set-up: expressed in transfected cells; host or cells: HEK293T; details: HA-UBCH7 and ITCH-FLAG, 100 μM for 24 or 36 hours
[9] = molecular target: T2, UBCH7 and ITCH; assay: UBCH7-ITCH interaction, proximity ligation assay (PLA) in cancer cell lines; type: cell-based; details: M229R5, H358, M238R1 and M238, 100 μM for 2 days
Procedure: Right panel: M229R5, H358, M238R1 and M238 cells were treated with DMSO or AK087 (100 μM) for 2 days followed by proximity ligation assay (PLA) using anti-UBCH7 and anti-ITCH antibodies. Signal dots per cell was quantified by the Duolink ImageTool. For bar graph: n=2-3. Means±SEM. *p<0.05, **p<0.01, student's t test.
For bar graph: n=2-3. Means #SEM. *p<0.05, **p<0.01, student's t test.

[10] = test system: total PD-L1; assay: Western blots of total PD-L1 protein levels in cultured cell lines; type: cell-based, human; details: for total PD-L1 protein level: 20, 40, 80 μM for 6 days
Procedure: as §2, §3

[11] = AK087 10 mg/kg/day for 17 days, co-treatment with trametinib
[12] = M238 R1 Vec or OE ITCH, 16 hours

ITCH, sequence (Q96J02 whole entry, species assumed): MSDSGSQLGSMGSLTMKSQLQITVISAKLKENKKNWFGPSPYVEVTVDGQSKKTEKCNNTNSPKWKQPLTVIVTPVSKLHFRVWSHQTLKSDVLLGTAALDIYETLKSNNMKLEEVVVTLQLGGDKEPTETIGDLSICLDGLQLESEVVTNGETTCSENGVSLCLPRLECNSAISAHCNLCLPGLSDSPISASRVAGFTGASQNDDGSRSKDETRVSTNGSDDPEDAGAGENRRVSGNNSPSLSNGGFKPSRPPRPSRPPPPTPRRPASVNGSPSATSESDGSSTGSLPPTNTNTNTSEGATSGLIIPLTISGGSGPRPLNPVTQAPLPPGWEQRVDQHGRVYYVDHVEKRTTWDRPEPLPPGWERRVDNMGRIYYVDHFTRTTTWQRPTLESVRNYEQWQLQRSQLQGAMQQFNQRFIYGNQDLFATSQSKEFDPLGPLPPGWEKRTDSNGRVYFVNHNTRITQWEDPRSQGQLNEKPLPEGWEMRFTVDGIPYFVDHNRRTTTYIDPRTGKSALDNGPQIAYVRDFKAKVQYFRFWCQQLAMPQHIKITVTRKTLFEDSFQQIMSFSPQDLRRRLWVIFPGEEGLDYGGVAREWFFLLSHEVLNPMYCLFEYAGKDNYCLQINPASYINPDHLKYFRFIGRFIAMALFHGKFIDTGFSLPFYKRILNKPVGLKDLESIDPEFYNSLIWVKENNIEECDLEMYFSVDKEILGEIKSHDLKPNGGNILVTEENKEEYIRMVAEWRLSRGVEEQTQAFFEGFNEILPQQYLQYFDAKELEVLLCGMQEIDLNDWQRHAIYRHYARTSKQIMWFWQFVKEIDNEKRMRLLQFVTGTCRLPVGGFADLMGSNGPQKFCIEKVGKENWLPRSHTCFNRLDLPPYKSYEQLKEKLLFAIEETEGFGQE
T2 sequence (Q96J02 whole entry): as the sequence (Q96J02 whole entry, species assumed) above
T2 sequence (P68036 whole entry partner): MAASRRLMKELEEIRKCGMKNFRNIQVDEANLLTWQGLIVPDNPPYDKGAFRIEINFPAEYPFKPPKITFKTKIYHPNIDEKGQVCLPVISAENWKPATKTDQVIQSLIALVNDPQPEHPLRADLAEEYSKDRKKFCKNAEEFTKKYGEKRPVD
T1 sequence (Q96J02 whole entry): as the sequence (Q96J02 whole entry, species assumed) above

For `Cc1ccc(N2C(=O)C(Cl)=C(N3CCCCC3)C2=O)cc1` [RL 2, 3-chloro-1-(4-methylphenyl)-4-piperidin-1-yl-1H-pyrrole-2,5-dione], the “Activity (%)” value ([1]; Screening concentration 10 uM) is listed as 141%.

For `Cc1ccc(NS(=O)(=O)c2ccccc2)cc1C` [RL 3, N-(3,4-dimethylphenyl)benzenesulfonamide], the “Activity (%)” value ([1]; Screening concentration 10 uM) is given as 140%.

For `Cc1ccc(S(=O)(=O)c2cc3ccc(C)n3cn2)cc1` [RL 4, 4-methylphenyl 7-methylpyrrolo[1,2-c]pyrimidin-3-yl sulfone], the “Activity (%)” value ([1]; Screening concentration 10 uM) is listed as 145%.

For `COc1cc2oc(=O)cc(C)c2c(OC)c1OC` [RL 5, 5,6,7-trimethoxy-4-methyl-2H-chromen-2-one], the “response to immune checkpoint blockade” value [2] was “improves responses”, the “poly-ubiquitination of endogenous PD-L1” value [3] was “enhancing the poly-ubiquitination” and the “body weight loss / toxicities” value [4, 11] was “no appreciable body weight loss or superficial evidence of toxicities”. For the same compound, the complete responses [4, 11] was 5 of 9, the “acquired MAPKi-resistance” value ([4]; AK087 10 mg/kg/day subcutaneously for 17 days, co-treatment with trametinib 0.45 mg/kg/d) was “suppressed acquired MAPKi-resistance” and the “tumor cell-surface PD-L1” value ([5]; H358, 0, 20, 40, 80 μM for 6 days) was “dose-dependently reduced”. For the same compound, the “tumor cell-surface PD-L1/L2” value ([5]; M238 R1, 0, 20, 40, 80 μM for 6 days) was “dose-dependently reduced”, the “response to immune checkpoint blockade” value [6] was “improves responses” and the “poly/auto-ubiquitination of ITCH-FLAG” value [7] was “dose-dependently enhanced”. The “interaction between UBCH7 and ITCH” value [8] was “enhances the interaction”, the “interaction between UBCH7 and ITCH” value [9] was “enhances the interaction” and the “Activity (%)” value ([1]; Screening concentration 10 uM) was 140%. For the same compound, the “enhancement of auto-ubiquitination of ITCH” value ([1]; reconstituted recombinant proteins, small molecule screen (ref. 25)) was 140%, the “total PD-L1 protein level” value ([10]; H358) was “dose-dependently reduced” and the “total PD-L1 protein level” value ([10]; M238 R1) was “dose-dependently reduced”.

For `Cc1[nH]nc2c1C(c1ccccc1OC(C)C)C(C#N)=C(N)O2` (stereo not shown) [RL 6, 6-amino-3-methyl-4-{2-[(1-methylethyl)oxy]phenyl}-2,4-dihydropyrano[2,3-c]pyrazole-5-carbonitrile], the “Activity (%)” value ([1]; Screening concentration 10 uM) is given as 194%.

For `CCN(CC)CCCC(C)Nc1ccnc2cc(Cl)ccc12` (stereo not shown) [chloroquine, reference compound], the “down-regulation of cell-surface PD-L1 levels elicited by ITCH over-expression” value [5, 12] was “rescued down-regulation” and the “down-regulation of total PD-L1 levels elicited by ITCH over-expression” value [10, 12] was “rescued down-regulation”.

In the case of “CHLORO- PHYLLIDE Cu COMPLEX Na SALT [RL 1]”, the “Activity (%)” value ([1]; Screening concentration 20 uM) is given as 147%.
